In ChEMBL document CHEMBL1201862, “PubChem BioAssay data set” (2004):
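Method: 48-hour compound exposure of cells in 96-well plates, five concentrations, linear interpolation of endpoints. GI50 = concentration required for 50% inhibition of growth.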 Calls of active or inactive are those of the source. Cut-off read from the data, not from the text of the source: active = GI50 up to about 1.1 µM and inactive = higher.

Assays:
Test in all cases: NCI-60 cell line screen, 48 h
UACC-257 = system: UACC-257
T47D = system: T47D
MCF7 = system: MCF7
A498 = system: A498
Malme-3M = system: Malme-3M
SNB-19 = system: SNB-19
HOP-62 = system: HOP-62
EKVX = system: EKVX
NCI-H23 = system: NCI-H23
KM12 = system: KM12
SR = system: SR
M14 = system: M14
BT-549 = system: BT-549
LOX IMVI = system: LOX IMVI
SF-539 = system: SF-539
HCT-116 = system: HCT-116
HCC 2998 = system: HCC 2998
OVCAR-4 = system: OVCAR-4
RXF 393 = system: RXF 393

Measured: GI50

O=C(O)c1nn(-c2ccc(Cl)cc2)c2c1C(=O)c1ccccc1C2=O
inactive: UACC-257 > 100 µM | T47D > 100 µM | MCF7 > 100 µM | A498 > 100 µM | Malme-3M 5.42 µM | SNB-19 > 100 µM | HOP-62 > 100 µM | EKVX > 100 µM | NCI-H23 37.5 µM | KM12 > 100 µM | SR 21.2 µM | M14 20 µM | BT-549 > 100 µM | LOX IMVI > 100 µM | SF-539 30.2 µM | HCT-116 > 100 µM | HCC 2998 43.1 µM | OVCAR-4 > 100 µM | RXF 393 17.5 µM

O=C(O)CSSCC(=O)O
inactive: UACC-257 > 100 µM | T47D > 100 µM | MCF7 > 100 µM | A498 > 100 µM | Malme-3M > 100 µM | SNB-19 > 100 µM | HOP-62 > 100 µM | EKVX > 100 µM | NCI-H23 > 100 µM | KM12 > 100 µM | SR > 100 µM | M14 > 100 µM | BT-549 > 100 µM | LOX IMVI > 100 µM | SF-539 > 100 µM | HCT-116 > 100 µM | HCC 2998 > 100 µM | OVCAR-4 > 100 µM | RXF 393 > 100 µM

O=P(O)(CCP(=O)(O)c1ccccc1)c1ccccc1
inactive: UACC-257 > 100 µM | T47D > 100 µM | MCF7 > 100 µM | A498 > 100 µM | Malme-3M > 100 µM | SNB-19 > 100 µM | HOP-62 > 100 µM | EKVX > 100 µM | NCI-H23 > 100 µM | KM12 > 100 µM | SR > 100 µM | M14 > 100 µM | BT-549 > 100 µM | LOX IMVI > 100 µM | SF-539 > 100 µM | HCT-116 > 100 µM | HCC 2998 > 100 µM | OVCAR-4 > 100 µM | RXF 393 > 100 µM

CN(C)CCC(=O)[C@@]1(O)CC[C@H]2[C@@H]3CC=C4C[C@@H](O)CC[C@]4(C)[C@H]3CC[C@@]21C
inactive: UACC-257 13.3 µM | T47D 4.11 µM | MCF7 4.38 µM | A498 16.1 µM | Malme-3M 15.3 µM | SNB-19 25.6 µM | HOP-62 14.2 µM | EKVX 20.7 µM | NCI-H23 23.6 µM | KM12 15.1 µM | SR 12.6 µM | M14 18.2 µM | BT-549 17.9 µM | LOX IMVI 13.7 µM | SF-539 2.6 µM | HCT-116 18 µM | HCC 2998 21.3 µM | OVCAR-4 33.4 µM | RXF 393 9.2 µM

COc1ccc(-c2cc(-c3ccccc3)nc(/N=C\c3ccccc3)n2)c(O)c1
inactive: UACC-257 > 100 µM | T47D 5.62 µM | MCF7 1.64 µM | A498 > 100 µM | Malme-3M > 80.4 µM | SNB-19 > 36.5 µM | HOP-62 > 57.7 µM | EKVX > 26.4 µM | NCI-H23 > 100 µM | KM12 5.9 µM | SR 3.68 µM | M14 > 100 µM | BT-549 > 31.3 µM | LOX IMVI 8.05 µM | SF-539 > 100 µM | HCT-116 > 26.6 µM | HCC 2998 > 100 µM | OVCAR-4 > 41.9 µM | RXF 393 > 100 µM

COC(=O)C(=O)C(C(=O)C(N)=O)c1nc2ccc(C(=O)c3ccccc3)cc2nc1O (stereo not given)
inactive: UACC-257 > 100 µM | T47D 70.5 µM | MCF7 63.8 µM | A498 > 100 µM | Malme-3M > 100 µM | SNB-19 > 10 µM | HOP-62 > 100 µM | EKVX > 100 µM | NCI-H23 > 10 µM | KM12 46.9 µM | SR 27.7 µM | M14 > 100 µM | BT-549 > 100 µM | LOX IMVI > 100 µM | SF-539 87.1 µM | HCT-116 > 100 µM | HCC 2998 > 100 µM | OVCAR-4 28.6 µM | RXF 393 69.7 µM

CC(Oc1ccccc1Cl)C(=O)NN1C(=O)CC(=O)NC1=S (stereo not given)
inactive: UACC-257 > 100 µM | T47D 36.6 µM | MCF7 > 100 µM | A498 > 100 µM | Malme-3M > 100 µM | SNB-19 > 100 µM | HOP-62 > 100 µM | EKVX > 100 µM | NCI-H23 > 100 µM | KM12 83.8 µM | SR > 100 µM | M14 > 100 µM | BT-549 > 100 µM | LOX IMVI 61.9 µM | SF-539 > 100 µM | HCT-116 > 100 µM | HCC 2998 > 100 µM | OVCAR-4 > 100 µM | RXF 393 > 100 µM

O=C1C(CN2CCCC2)CCC1CN1CCCC1 (stereo not given)
inactive: UACC-257 16.8 µM | T47D 17.4 µM | MCF7 19.4 µM | A498 > 100 µM | Malme-3M 15.1 µM | SNB-19 > 100 µM | HOP-62 > 100 µM | EKVX > 49.7 µM | NCI-H23 20.7 µM | KM12 > 100 µM | SR 12.9 µM | M14 15.8 µM | BT-549 17.5 µM | LOX IMVI 20.8 µM | SF-539 19.5 µM | HCT-116 17.5 µM | HCC 2998 > 100 µM | OVCAR-4 20.7 µM | RXF 393 20.4 µM

C/C(=C\COc1cc(O)c2c(c1)C(=O)c1cc(C)cc(O)c1C2=O)CCC1OC1(C)C (stereo not given)
inactive: UACC-257 > 100 µM | T47D 49.4 µM | MCF7 38.4 µM | A498 > 100 µM | Malme-3M > 100 µM | SNB-19 > 100 µM | HOP-62 46 µM | EKVX > 100 µM | NCI-H23 > 100 µM | KM12 > 100 µM | SR 13.9 µM | M14 > 100 µM | BT-549 26.7 µM | LOX IMVI > 100 µM | SF-539 74 µM | HCT-116 77.8 µM | HCC 2998 > 100 µM | OVCAR-4 37.8 µM | RXF 393 30.2 µM

C=C1C(=O)OC2C3C(=C)[C@@H](OC(C)=O)CC3C(C)=CC(OC(=O)C(C)(O)C(C)OC(C)=O)[C@@H]12 (stereo not given in full)
inactive: UACC-257 9.46 µM | T47D 19.5 µM | MCF7 10.7 µM | A498 16.7 µM | Malme-3M 6.7 µM | SNB-19 85.5 µM | HOP-62 21.3 µM | EKVX 16.1 µM | NCI-H23 13.2 µM | KM12 15.2 µM | SR 7.41 µM | M14 7.6 µM | BT-549 13.6 µM | LOX IMVI 4.89 µM | SF-539 13.8 µM | HCT-116 5.02 µM | HCC 2998 16.1 µM | OVCAR-4 7.28 µM | RXF 393 3.61 µM
